Read-outs that look alike come from different tables or passages of the source.
How the values were obtained:
CV-1 cells = assay: selective killing assay, colony number reduced to 50% of control, normal monkey kidney epithelial cell line CV-1; assay type: cell-based; conditions: 24 hours treatment; for IC50: Primates
Excerpt: (§1) The control received culture media only.

CX-1 cells = assay: selective killing assay, colony number reduced to 50% of control, human colon carcinoma cell line CX-1; assay type: cell-based; conditions: for Selectivity (ratio of IC50 for CV-1 and IC50 for CX-1): CV-1/CX-1; for IC50 / CX-1 (IC50): human colon carcinoma, 24 hours treatment, colony count after 7 to 10 days;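 on all read-outs here: colonies stained with crystal violet and counted, control cells given medium alone, exposure at 37 °C, normal monkey kidney epithelial CV-1 cells as the non-cancer comparator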
EJ cells = assay: colony assay of Example 1 with human bladder carcinoma EJ cell line; assay type: cell-based; conditions: for Selectivity: CV-1/EJ; for IC50: EJ; for IC50 / EJ (IC50): Table IV, human bladder carcinoma, 24 hours treatment;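 on all read-outs here: colony formation assay with 24 h compound exposure at 37 °C, then 7–10 days drug-free regrowth, colonies stained with crystal violet, controls given medium alone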
Procedure: (§2) Human colon carcinoma cell line CX-1 or normal monkey kidney epithelial cell line CV-1 was chosen as representatives of cancer cells and normal cells, respectively. […] CX-1 cells (2,000 cells/well) and CV-1 cells (1,000 cells/well) were plated in 24-well plastic culture plates. […] The control received culture media only. Cells were treated with compounds of General Formulas (I) to (V) at 37° C. for 24 hours. After rinsing with fresh culture medium three times, the cells were further incubated at 37° C. for 7 to 10 days. Cell colonies were fixed and stained with 2% crystal violet in 70% ethanol for 10 minutes and rinsed in water. […] The selectivity is defined as the ratio of IC50 for CV-1 and IC50 for CX-1.

LOX cells = assay: colony assay of Example 1 with human melanoma LOX cell line; assay type: cell-based; conditions: for Selectivity: CV-1/LOX; for IC50: LOX; for IC50 / LOX(IC50): Table V, human melanoma, 24 hours treatment;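 on all read-outs here: colony formation assay with 24 h exposure at 37 °C, then 7 to 10 days of regrowth, crystal violet staining of colonies, control wells given medium alone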
Procedure: as §2

MCF-7 cells = assay: colony assay of Example 1 with human breast carcinoma MCF-7 cell line; assay type: cell-based; conditions: for Selectivity: CV-1/MCF-7; for IC50: Table VI, human breast carcinoma, 24 hours treatment
Excerpt: as §1

CRL 1420 cells = assay: colony assay of Example 1 with human pancreatic carcinoma CRL 1420 cell line; assay type: cell-based; conditions: for Selectivity: CV-1/CRL-1420; for IC50 / CRL-1420(IC50): Table VII, human pancreatic carcinoma, 24 hours treatment;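 on all read-outs here: colony formation assay, cells exposed for 24 h then regrown 7 to 10 days without compound, colonies stained with crystal violet, control given medium alone, normal reference CV-1 monkey kidney epithelial cells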
[1] = system: human colon carcinoma CX-1; assay: anti-human colon carcinoma CX-1 activity using nude mice; assay type: in vivo, Swiss nu/nu mice (human tumor)
Excerpt: Human colon carcinoma cell line CX-1 has been chosen by the National Cancer Institute as a mode for cancer drug screening (NCI Protocol 3C2H2). It was established in culture from the surgical explant of the primary colon adenocarcinoma of a person with no previous chemotherapy. The cultured CX-1 cells, upon subcutaneous injection, can grow readily in nude mice as a moderately- to well-differentiated human colon carcinoma. CEA is expressed as expected for differentiated colon carcinoma cells. Abundant keratin, consistent with epithelial origin, is present. Increased uptake and prolonged retention of delocalized lipophilic cations are observed.
Swiss nu/nu mice obtained from Taconic Farm were housed in a pathogen-free environment. Tumors subcutaneously passaged in nude mice were excised under sterile conditions and converted to a single cell suspension using a metal grid with a 0.4 mm mesh. Red blood cells were lysed by incubation with 0.17M ammonium chloride at 4° C. for 20 minutes. Cells were scored for viability with trypan blue. Viable CX-1 cells (2.5 million) made up in 0.1 ml of […]. The mice were randomly allocated into a control group (five mice) and a treatment group (five mice per group). The drug treatment was commenced the next day. Doses and schedules were developed empirically and were based mainly on information on LD50 and LD1O obtained from preliminary toxicity studies. The control group received an equivalent volume of hydroxypropyl-β-cyclodextrin-5% glucose solution.
The pharmaceutical compositions tested comprised solutions in 5% glucose subjected to sonication at concentrations of 1 mg/ml. Those compounds which were not completely dissolved by this procedure were dissolved hydroxypropyl-β-cyclodextrin using the following method. Hydroxypropyl-β-cyclodextrin (45 g) was mixed with 100 ml of sterilized, double distilled water and stirred for four hours. Each of the compounds to be tested (20 mg) was mixed with 10 ml of hydroxypropyl-β-cyclodextrin solution and sonicated for 60 minutes in the dark. This solution was then diluted in 5% glucose to yield a final compound concentration of 0.5 mg/ml, and further sonicated for 60 minutes in the dark to assure that the compound was completely dissolved.
When the growth of tumors in the control group reached the exponential phase and the size of the tumor was palpable (usually 20 to 30 days after tumor implantation), the experiments were terminated. Tumors in each mouse were excised and weighed using an analytical balance. Total tumor weight in each group from five mice was calculated. Per cent tumor inhibition between the treated group and the control group was then calculated for each group.

human melanoma LOX = assay: survival of nude mice implanted with human melanoma LOX; assay type: in vivo, male athymic Swiss nu/nu mouse (human tumor); conditions: for T/C: 5 mg/kg i.p. on day 1, 4, 8, 11, 15, 18; for response vs control in vivo at 5 mg/kg: Mus musculus, ip, read-out: T/C
[2] = CV-1, Table III, normal monkey kidney epithelial cells, colony count after 7 to 10 days
[3] = Mus musculus, ip, 24 h, 5 mg/kg i.p. on day 1, 9, 13, read-out: Tumor Inhibition
[4] = Table III, normal monkey kidney epithelial cells, colony count after 7 to 10 days
[5] = Mus musculus, ip, 24 h, 5 mg/kg i.p. on day 1, 5, 8, 11, read-out: Tumor Inhibition

CCn1c(=Cc2[se]c3ccccc3[n+]2CC)sc(=C2Sc3ccccc3N2C)c1=O [Compound 27]
IC50 (CV-1 cells; [2]): 20 mg/L
IC50 (CV-1 cells; CV-1, Table IV): 20 mg/L
IC50 (CV-1 cells; CV-1, Table V): 20 mg/L
Selectivity (ratio of IC50 for CV-1 and IC50 for CX-1) (CX-1 cells): 667
IC50 (CX-1 cells; CX-1, Table III): 0.03 mg/L
Selectivity (EJ cells): 1000
IC50 (EJ cells): 0.02 mg/L
Selectivity (LOX cells): 1333
IC50 (LOX cells): 0.015 mg/L
Selectivity (MCF-7 cells): 333
IC50 (MCF-7 cells; MCF7): 0.06 mg/L
Selectivity (CRL 1420 cells): 1333
IC50 (CRL 1420 cells): 0.015 mg/L
inhibition in vivo at 2.5 mg/kg ([1]; Mus musculus, ip, 24 h, read-out: Tumor Inhibition): 40.9%

CCn1c(=Cc2oc3ccccc3[n+]2C)sc(=C2Sc3ccccc3N2C)c1=O [Compound 9]
IC50 (CV-1 cells; CV-1, 24 h, Table IV): 20 mg/L
IC50 (CV-1 cells; CV-1, 24 h, Table VII): 20 mg/L
CV-1 (IC50) (CV-1 cells; Table V): > 30 mg/L
Selectivity (ratio of IC50 for CV-1 and IC50 for CX-1) (CX-1 cells): 500
CX-1 (IC50) (CX-1 cells; Table III): 0.04 mg/L
Selectivity (EJ cells): 400
EJ (IC50) (EJ cells): 0.05 mg/L
Selectivity (LOX cells): > 300
LOX(IC50) (LOX cells): 0.1 mg/L
Selectivity (CRL 1420 cells): 222
CRL-1420(IC50) (CRL 1420 cells): 0.09 mg/L
T/C (human melanoma LOX): 142%
inhibition in vivo at 5 mg/kg [1, 3]: 45.2%

CCn1c(=Cc2oc3ccccc3[n+]2C)sc(=C2Sc3ccccc3N2C)c1=O [Compound 10]
CV-1 (IC50) (CV-1 cells; [4]): 20 mg/L
CV-1 (IC50) (CV-1 cells; Table V): > 30 mg/L
CV-1 (IC50) (CV-1 cells; Table VII): 20 mg/L
Selectivity (ratio of IC50 for CV-1 and IC50 for CX-1) (CX-1 cells): 500
CX-1 (IC50) (CX-1 cells; Table III): 0.04 mg/L
Selectivity (LOX cells): > 300
LOX(IC50) (LOX cells): 0.1 mg/L
Selectivity (CRL 1420 cells): 250
CRL-1420(IC50) (CRL 1420 cells): 0.08 mg/L
T/C (human melanoma LOX): 171%
Tumor Inhibition ([1]; 5 mg/kg i.p. on day 1, 5, 9, 13): 66.0%

CCn1c(=C2CCC[n+]3c2sc2ccccc23)sc(=C2Sc3ccccc3N2C)c1=O [Compound 39]
IC50 (CV-1 cells; CV-1, 24 h, Table IV): 20 mg/L
IC50 (CV-1 cells; CV-1, 24 h, Table V): 20 mg/L
IC50 (CV-1 cells; CV-1, 24 h, Table VI): 20 mg/L
IC50 (CV-1 cells; CV-1, 24 h, Table VII): 20 mg/L
IC50 (CV-1 cells; [2]): 20 mg/L
Selectivity (ratio of IC50 for CV-1 and IC50 for CX-1) (CX-1 cells): 500
IC50 (CX-1 cells; Homo sapiens, CX-1, Table III): 0.04 mg/L
Selectivity (EJ cells): 500
IC50 (EJ cells; Homo sapiens, 24 h): 0.04 mg/L
Selectivity (LOX cells): 666
IC50 (LOX cells; Homo sapiens, 24 h): 0.03 mg/L
Selectivity (MCF-7 cells): 222
IC50 (MCF-7 cells; Homo sapiens, MCF7, 24 h): 0.09 mg/L
Selectivity (CRL 1420 cells): 400
IC50 (CRL 1420 cells; Homo sapiens, 24 h): 0.05 mg/L
response vs control in vivo at 5 mg/kg (human melanoma LOX; 24 h, 5 mg/kg i.p. on day 1, 4, 11, 15, 18): 154%
inhibition in vivo at 5 mg/kg [1, 5]: 74.9%

CCn1c(=Cc2oc3ccccc3[n+]2C)sc(=C2Sc3ccccc3N2C)c1=O [Compound 13]
CV-1 (IC50) (CV-1 cells; [4]): > 20 mg/L
CV-1 (IC50) (CV-1 cells; Table IV): 20 mg/L
CV-1 (IC50) (CV-1 cells; Table V): > 20 mg/L
CV-1 (IC50) (CV-1 cells; Table VII): > 20 mg/L
Selectivity (ratio of IC50 for CV-1 and IC50 for CX-1) (CX-1 cells): > 667
CX-1 (IC50) (CX-1 cells; Table III): 0.03 mg/L
Selectivity (EJ cells): 222
EJ (IC50) (EJ cells): 0.09 mg/L
Selectivity (LOX cells): > 222
LOX(IC50) (LOX cells): 0.09 mg/L
Selectivity (CRL 1420 cells): > 400
CRL-1420(IC50) (CRL 1420 cells): 0.05 mg/L
response vs control in vivo at 5 mg/kg (human melanoma LOX; 24 h, 5 mg/kg i.p. on day 1, 4, 8, 11): 147%
inhibition in vivo at 20 mg/kg ([1]; Mus musculus, ip, 24 h, 20 mg/kg i.p. on day 1, 5, 8, 12, 15, 19, read-out: Tumor Inhibition): 87.7%

CCn1c(=Cc2ccc3ccccc3[n+]2CC)sc(=C2Sc3ccccc3N2C)c1=O [Compound 21]
IC50 (CV-1 cells; CV-1, 24 h, Table IV): 8 mg/L
IC50 (CV-1 cells; CV-1, 24 h, Table V): 8 mg/L
IC50 (CV-1 cells; CV-1, 24 h, Table VII): 8 mg/L
Selectivity (ratio of IC50 for CV-1 and IC50 for CX-1) (CX-1 cells): 800
CX-1 (IC50) (CX-1 cells; Table III): 0.01 mg/L
Selectivity (EJ cells): 364
IC50 (EJ cells; Homo sapiens, 24 h): 0.022 mg/L
Selectivity (LOX cells): 261
IC50 (LOX cells; Homo sapiens, 24 h): 0.03 mg/L
Selectivity (CRL 1420 cells): 261
IC50 (CRL 1420 cells; Homo sapiens, 24 h): 0.03 mg/L
response vs control in vivo at 5 mg/kg (human melanoma LOX; 5 mg/kg i.p. on day 1, 2.5 mg/kg on day 5, 8): 133%
inhibition in vivo at 2.5 mg/kg ([1]; Mus musculus, ip, 24 h, 2.5 mg/kg i.p. on day 1, 5, 8, 12, read-out: Tumor Inhibition): 50.2%

CCN1C(=c2sc(=Cc3oc4ccccc4[n+]3CC)n(CC)c2=O)Sc2ccccc21 [Compound 19]
IC50 (CV-1 cells; CV-1, 24 h, Table IV): 20 mg/L
IC50 (CV-1 cells; CV-1, 24 h, Table V): 20 mg/L
IC50 (CV-1 cells; CV-1, 24 h, Table VI): 10 mg/L
IC50 (CV-1 cells; CV-1, 24 h, Table VII): 10 mg/L
IC50 (CV-1 cells; [2]): 10 mg/L
Selectivity (ratio of IC50 for CV-1 and IC50 for CX-1) (CX-1 cells): 500
IC50 (CX-1 cells; Homo sapiens, CX-1, Table III): 0.02 mg/L
Selectivity (EJ cells): 200
IC50 (EJ cells; Homo sapiens, 24 h): 0.1 mg/L
Selectivity (LOX cells): > 200
IC50 (LOX cells; Homo sapiens, 24 h): < 0.1 mg/L
Selectivity (MCF-7 cells): 167
IC50 (MCF-7 cells; Homo sapiens, MCF7, 24 h): 0.06 mg/L
Selectivity (CRL 1420 cells): 111
IC50 (CRL 1420 cells; Homo sapiens, 24 h): 0.09 mg/L
inhibition in vivo at 5 mg/kg [1, 3]: 60.4%

CCn1c(=Cc2oc3ccccc3[n+]2C)sc(=C2Sc3ccccc3N2C)c1=O [Compound 26]
IC50 (CV-1 cells; CV-1, 24 h, Table VI): 20 mg/L
Selectivity (ratio of IC50 for CV-1 and IC50 for CX-1) (CX-1 cells): 500
CX-1 (IC50) (CX-1 cells; Table III): 0.04 mg/L
Selectivity (EJ cells): 400
EJ (IC50) (EJ cells): 0.05 mg/L
Selectivity (LOX cells): 400
LOX(IC50) (LOX cells): 0.05 mg/L
Selectivity (MCF-7 cells): 333
IC50 (MCF-7 cells; Homo sapiens, MCF7, 24 h): 0.06 mg/L
Selectivity (CRL 1420 cells): 500
CRL-1420(IC50) (CRL 1420 cells): 0.04 mg/L
inhibition in vivo at 5 mg/kg [1, 5]: 53.6%
